In US10294234B2, “HIV inhibitor compounds” (priority 2017, dated 2019):
Like-named read-outs stand apart in the source and are kept apart here.

How the values were obtained:
[1] = 3H Human Predicted Clearance Assay (tritiated analogs); assay type: in vitro ADME; parameters: unit not given here
Method: 3H Human Predicted Clearance Assay:
For certain compounds, tritiated analogs (H^3) were prepared to further determined their human predicted clearance with increased resolution. Those studies were performed as described above using the tritiated analogs. Data from those compounds is found in Table 2 below and reported in FIG. 1 (note ATV and DRV were not tritiated).

[2] = How it was run: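 Dog, rat and human liver microsomes (0.5 mg/mL) with NADPH-regenerating cofactor; test compound 1 uM, duplicates. Timepoints 2, 12, 25, 45, 65 min; protein removed by centrifugation, supernatant analysed by LC/MS/MS. Clint from t1/2.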
[3] = system: HIV-1 (IIIB) in MT-4 cells; test: MT-4 HIV assay; assay type: cell-based
How it was run: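 MT-4 cells infected with HIV-1 IIIB (1:250 stock dilution) were incubated with 1:3 serially diluted compounds in RPMI with 10% FBS for 5 days at 37 °C. Cell Titer Glo luminescence was the readout. Plates included mock-infected wells, no-drug wells and 5 uM AZT controls.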

[4] = human liver microsomes 0.5 mg/mL, 1 uM compound, NADPH
[5] = rat liver microsomes 0.5 mg/mL, 1 uM compound, NADPH
[6] = tritiated analogs, human liver microsomes
[7] = Human immunodeficiency virus 1, MT4, 120 h, HIV-1 (IIIB), MT-4 cells, 5 days, Cell Titer Glo, read-out: EC50
[8] = Human immunodeficiency virus 1, MT4, 120 h

| Compound | 3H Human Predicted Cl. ([1]; human, 1 uM) | Human Pred Cl. [2, 4] [L/H/kg] | Rat. Pred. Cl. [2, 5] [L/H/kg] | 3H Human Predicted Cl. [1, 6] | Human Pred Cl. ([2]; human, microsomes) [L/H/kg] | Rat. Pred. Cl. ([2]; rat, microsomes) [L/H/kg] | EC50 [3, 7] [nM] | also measured |
| --- | --- | --- | --- | --- | --- | --- | --- | --- |
| COC(=O)N[C@H](C(=O)N[C@@H](Cc1ccc(C#Cc2cnc(N3CC4CCC(C3)N4C3COC3)c(C)c2)cc1)[C@@H](O)CN(Cc1c(F)cc(-c2cnn(C(F)F)c2)cc1F)NC(=O)[C@@H](NC(=O)OC)C(C)(C)C(F)(F)F)C(C)(C)C(F)(F)F [Example 153, Methyl ((5S,8S,9S,14S)-11-(4-(1-(difluoromethyl)-1H-pyrazol-4-yl)-2,6-difluorobenzyl)-16,16,16-trifluoro-9-hydroxy-15,15-dimethyl-8-(4-((5-methyl-6-(8-(oxetan-3-yl)-3,8-diazabicyclo[3.2.1]octan-3-yl)pyridin-3-yl)ethynyl)benzyl)-3,6,13-trioxo-5-(1,1,1-trifluoro-2-methylpropan-2-yl)-2-oxa-4,7,11,12-tetraazahexadecan-14-yl)carbamate] | 0.43 | – | – | – | – | – | – | – |
| Methyl ((5S,8S,9S,14S)-11-(4-(1-(difluoromethyl)-1H-pyrazol-3-yl)-2,6-difluorobenzyl)-16,16,16-trifluoro-9-hydroxy-15,15-dimethyl-8-(4-((6-(4-(oxetan-3-yl)piperazin-1-yl)pyridin-3-yl)ethynyl)benzyl)-3,6,3-trioxo-5-(1,1,1-trifluoro-2-methylpropan-2-yl)-2-oxa-4,7,11,12-tetraazahexadecan-14-yl)carbamate [Example 112] | – | <0.11 | 0.32 | 0.11 | – | – | – | EC50 ([3]; HIV-1 (IIIB), MT-4 cells, 5 days, Cell Titer Glo, read-out: EC50): 4.45 nM |
| COC(=O)N[C@H](C(=O)N[C@@H](Cc1ccc(-c2ccc(N3CC4CCC(C3)N4C3COC3)nc2)cc1)[C@@H](O)CN(Cc1c(F)cc(-c2ccn(C(F)F)n2)cc1F)NC(=O)[C@@H](NC(=O)OC)C(C)(C)C(F)(F)F)C(C)(C)C(F)(F)F [Example 208, Methyl ((5S,8S,9S,14S)-11-(4-(1-(difluoromethyl)-1H-pyrazol-3-yl)-2,6-difluorobenzyl)-16,16,16-trifluoro-9-hydroxy-15,15-dimethyl-8-(4-(6-(8-(oxetan-3-yl)-3,8-diazabicyclo[3.2.1]octan-3-yl)pyridin-3-yl)benzyl)-3,6,13-trioxo-5-(1,1,1-trifluoro-2-methylpropan-2-yl)-2-oxa-4,7,11,12-tetraazahexadecan-14-yl)carbamate] | 0.11 | – | – | – | 0.16 | 0.74 | 2.51 | – |
| COC(=O)N[C@H](C(=O)N[C@@H](Cc1ccc(C#Cc2ccc(N3CCN4CCOC[C@H]4C3)nc2)cc1)[C@@H](O)CN(Cc1c(F)cc(-c2ccn(C(F)F)n2)cc1F)NC(=O)[C@@H](NC(=O)OC)C(C)(C)C(F)(F)F)C(C)(C)C(F)(F)F [Example 51, methyl ((5S,8S,9S,14S)-11-(4-(1-(difluoromethyl)-1H-pyrazol-3-yl)-2,6-difluorobenzyl)-16,16,16-trifluoro-8-(4-((6-((R)-hexahydropyrazino[2,1-c][1,4]oxazin-8(1H)-yl)pyridin-3-yl)ethynyl)benzyl)-9-hydroxy-15,15-dimethyl-3,6,13-trioxo-5-(1,1,1-trifluoro-2-methylpropan-2-yl)-2-oxa-4,7,11,12-tetraazahexadecan-14-yl)carbamate] | – | <0.11 | – | 0.11 | – | – | – | EC50 [3, 8]: 2.8 nM |
| COC(=O)N[C@H](C(=O)N[C@@H](Cc1ccc(C#Cc2ccc(N3C[C@H]4C[C@@H]3CN4C3COC3)nc2)cc1)[C@@H](O)CN(Cc1c(F)cc(-c2ccn(C(F)F)n2)cc1F)NC(=O)[C@@H](NC(=O)OC)C(C)(C)C(F)(F)F)C(C)(C)C(F)(F)F [Example 173, Methyl ((5S,8S,9S,14S)-11-(4-(1-(difluoromethyl)-1H-pyrazol-3-yl)-2,6-difluorobenzyl)-16,16,16-trifluoro-9-hydroxy-15,15-dimethyl-8-(4-((6-((1R,4R)-5-(oxetan-3-yl)-2,5-diazabicyclo[2.2.1]heptan-2-yl)pyridin-3-yl)ethynyl)benzyl)-3,6,13-trioxo-5-(1,1,1-trifluoro-2-methylpropan-2-yl)-2-oxa-4,7,11,12-tetraazahexadecan-14-yl)carbamate] | – | <0.11 | 1.2 | 0.14 | – | – | – | EC50 [3, 8]: 2.55 nM |
| COC(=O)N[C@H](C(=O)N[C@@H](Cc1ccc(C#Cc2ccc(N3CC4CC(C3)N4C3COC3)nc2)cc1)[C@@H](O)CN(Cc1c(F)cc(-c2ccn(C(F)F)n2)cc1F)NC(=O)[C@@H](NC(=O)OC)C(C)(C)C(F)(F)F)C(C)(C)C(F)(F)F [Example 176, Methyl ((5S,8S,9S,14S)-11-(4-(1-(difluoromethyl)-1H-pyrazol-3-yl)-2,6-difluorobenzyl)-16,16,16-trifluoro-9-hydroxy-15,15-dimethyl-8-(4-((6-(6-(oxetan-3-yl)-3,6-diazabicyclo[3.1.1]heptan-3-yl)pyridin-3-yl)ethynyl)benzyl)-3,6,13-trioxo-5-(1,1,1-trifluoro-2-methylpropan-2-yl)-2-oxa-4,7,11,12-tetraazahexadecan-14-yl)carbamate] | 0.09 | – | – | – | <0.11 | 0.75 | 3.36 | – |
| COC(=O)N[C@H](C(=O)NN(Cc1c(F)cc(-c2ccn(C(F)F)n2)cc1F)C[C@H](O)[C@H](Cc1ccc(C#Cc2cnc(N3CC4CCC(C3)N4C3COC3)nc2)cc1)NC(=O)[C@@H](NC(=O)OC)C(C)(C)C(F)(F)F)C(C)(C)C [Example 23, Methyl ((5S,8S,9S,14S)-11-(4-(1-(difluoromethyl)-1H-pyrazol-3-yl)-2,6-difluorobenzyl)-9-hydroxy-15,15-dimethyl-8-(4-((2-(8-(oxetan-3-yl)-3,8-diazabicyclo[3.2.1]octan-3-yl)pyrimidin-5-yl)ethynyl)benzyl)-3,6,13-trioxo-5-(1,1,1-trifluoro-2-methylpropan-2-yl)-2-oxa-4,7,11,12-tetraazahexadecan-14-yl)carbamate] | 0.07 | – | – | – | <0.11 | 0.22 | 4.82 | Dog. Pred. Cl. ([2]; dog, microsomes): 0.21 L/H/kg |
| COC(=O)N[C@H](C(=O)N[C@@H](Cc1ccc(C#Cc2ccc(N3CC4CCC(C3)N4C3COC3)nc2)cc1)[C@@H](O)CN(Cc1c(F)cc(-c2nnc(C3CC3)s2)cc1F)NC(=O)[C@@H](NC(=O)OC)C(C)(C)C(F)(F)F)C(C)(C)C(F)(F)F [Example 75, Methyl ((5S,8S,9S,14S)-11-(4-(5-cyclopropyl-1,3,4-thiadiazol-2-yl)-2,6-difluorobenzyl)-16,16,16-trifluoro-9-hydroxy-15,15-dimethyl-8-(4-((6-(8-(oxetan-3-yl)-3,8-diazabicyclo[3.2.1]octan-3-yl)pyridin-3-yl)ethynyl)benzyl)-3,6,13-trioxo-5-(1,1,1-trifluoro-2-methylpropan-2-yl)-2-oxa-4,7,11,12-tetraazahexadecan-14-yl)carbamate] | 0.11 | – | – | – | <0.11 | 0.21 | 3.41 | – |
| COC(=O)N[C@H](C(=O)N[C@@H](Cc1ccc(C#Cc2cnc(N3CCN(C4COC4)CC3)nc2)cc1)[C@@H](O)CN(Cc1c(F)cc(-c2ncccn2)cc1F)NC(=O)[C@@H](NC(=O)OC)C(C)(C)C(F)(F)F)C(C)(C)C(F)(F)F [Example 88, Methyl ((5S,8S,9S,14S)-11-(2,6-difluoro-4-(pyrimidin-2-yl)benzyl)-16,16,16-trifluoro-9-hydroxy-15,15-dimethyl-8-(4-((2-(4-(oxetan-3-yl)piperazin-1-yl)pyrimidin-5-yl)ethynyl)benzyl)-3,6,13-trioxo-5-(1,1,1-trifluoro-2-methylpropan-2-yl)-2-oxa-4,7,11,12-tetraazahexadecan-14-yl)carbamate] | – | <0.11 | <0.18 | 0.08 | – | – | 4.57 | Dog. Pred. Cl. ([2]; dog liver microsomes 0.5 mg/mL, 1 uM compound, NADPH): 1.63 L/H/kg |
